Source: PubChem BioAssay AID1963965 (Molecular Pharmacology Branch, DTP, NCI, 2024)

Test system: 996289-038-R-J1-PDC spheroid viability
Assay: Anticancer human tumor 996289-038-R-J1-PDC patient-derived colon adenocarcinoma cell line growth inhibition [PI3K]
Details: spheroids with HUVEC and MSC; for viability, T/C: stronger effect = lower value
Source text: Combinatorial screen of targeted agents with the PI3K inhibitors inavolisib, alpelisib, duvelisib, and copanlisib in multi-cell type tumor spheroids
A high-throughput screen of multi-cell type tumor spheroids was designed to identify active combinations of targeted small molecules and PI3K pathway inhibitors. Complex spheroids include a stromal component modeled by human endothelial cells (HUVEC) and fibroblasts modeled by human mesenchymal stem cells (MSCs). The concentration ranges selected for each drug and investigational agent were based upon clinically achievable concentrations if the clinical Cmax of the agent was known.
Compounds. The drugs and investigational agents: inavolisib (NSC800729), alpelisib (NSC765974), duvelisib (NSC772469), copanlisib (NSC816437), ipatasertib (NSC767898), afuresertib (NSC778305), talazoparib (NSC767125), sapanisertib (NSC764658), selumetinib (NSC741078), tovorafenib (DAY101, NSC766906), vemurafenib (NSC761431), ravoxertinib (NSC781343), sotorasib (NSC818433), MRTX1133 (NSC 836407), abemaciclib (NSC 768073), palbociclib (NSC758247), venetoclax (NSC 766270), SY5609 (NSC837396), enzalutamide (NSC755605), and darolutamide (NSC825331), were obtained from the National Cancer Institute (NCI) Developmental Therapeutics Program Chemical Repository. The FDA-approved anticancer drug set is available from the NCI Developmental Therapeutics Program. […] The stock solutions were prepared in dimethyl sulfoxide (DMSO, Sigma-Aldrich, St. Louis, MO, cat. D2650) at 800-fold the tested concentration and stored at -70 degrees C prior to their use. All drugs and investigational agents were tested over a range starting from a high concentration at or near the clinical Cmax and decreasing in half-log increments. If the clinical Cmax for an agent had not been determined, the highest concentration tested was 10 microM.
Cell Culture. All cells were maintained in an incubator at 37 degrees C and 5% CO2 with 95% humidity. The PDC lines were cultured according to standard operating procedures established by the NCI PDMR (https://pdmr.cancer.gov/sops/default.htm). All PDCs were thawed and cultured in Matrigel-coated flasks prepared with a working solution of 1X Ham's F-12 nutrient mix, without supplementation (Invitrogen, Waltham, MA, cat. 11765054), 100 U/mL penicillin-streptomycin (Invitrogen, cat. 15140122), and 2.5% Matrigel (Corning Inc., Corning, NY, cat. 354248) for the first three passages. The 354836-022-R-J1-PDC, 475296-252-R-J1-PDC, and 997726-040-R-J2-PDC lines were cultured in 6A media, which includes advanced DMEM/F-12 (Thermo Fisher Scientific, cat. 12634028), 10 mM HEPES (Thermo Fisher Scientific, cat. 15630080), 1X GlutaMAX supplement (Thermo Fisher Scientific, cat. 35050061), 0.1 mg/mL primocin (InvivoGen, San Diego, CA, cat. ant-pm-2), 10% defined fetal bovine serum, heat inactivated (HyClone Laboratories Inc., Logan, UT, cat. SH30070.03HI), 50% L-WRN conditioned media (ATCC, cat. CRL-3276), 1.25 mM N-Acetyl-L-cysteine (Sigma-Aldrich, cat. A9165), 10 mM nicotinamide (Sigma-Aldrich, cat. N0636), 1X B-27 supplement (Thermo Fisher Scientific, cat. 17504044), 1X N-2 supplement (Thermo Fisher Scientific, cat. 17502048), and 10 microM Y-27632 dihydrochloride (Tocris Bioscience, Bristol, United Kingdom, cat. 1254). The 624824-186-R-J2-PDC line was cultured in 6C/Colon 1B media, which includes all 6A media components plus 50 ng/mL human EGF recombinant protein (Thermo Fisher Scientific, cat. PHG0311). […]

[1] = curve of first compound, second compound 0.0316 µM
[2] = curve of first compound, second compound 0.1 µM
[3] = curve of first compound, second compound 0.316 µM
[4] = curve of first compound, second compound 1 µM
[5] = curve of first compound, second compound 3.16 µM
[6] = curve of first compound, second compound 10 µM
[7] = second compound 0.0316 µM, first compound 0.0316 µM
[8] = second compound 0.0316 µM, first compound 0.1 µM
[9] = second compound 0.0316 µM, first compound 0.316 µM
[10] = second compound 0.0316 µM, first compound 1 µM
[11] = second compound 0.0316 µM, first compound 3.16 µM
[12] = second compound 0.0316 µM, first compound 10 µM
[13] = second compound 0.1 µM, first compound 0.0316 µM
[14] = second compound 0.1 µM, first compound 0.1 µM
[15] = second compound 0.1 µM, first compound 0.316 µM
[16] = second compound 0.1 µM, first compound 1 µM
[17] = second compound 0.1 µM, first compound 3.16 µM
[18] = second compound 0.1 µM, first compound 10 µM
[19] = second compound 0.316 µM, first compound 0.0316 µM
[20] = second compound 0.316 µM, first compound 0.1 µM
[21] = second compound 0.316 µM, first compound 0.316 µM
[22] = second compound 0.316 µM, first compound 1 µM
[23] = second compound 0.316 µM, first compound 3.16 µM
[24] = second compound 0.316 µM, first compound 10 µM
[25] = second compound 1 µM, first compound 0.0316 µM
[26] = second compound 1 µM, first compound 0.1 µM
[27] = second compound 1 µM, first compound 0.316 µM
[28] = second compound 1 µM, first compound 1 µM
[29] = second compound 1 µM, first compound 3.16 µM
[30] = second compound 1 µM, first compound 10 µM
[31] = second compound 3.16 µM, first compound 0.0316 µM
[32] = second compound 3.16 µM, first compound 0.1 µM
[33] = second compound 3.16 µM, first compound 0.316 µM
[34] = second compound 3.16 µM, first compound 1 µM
[35] = second compound 3.16 µM, first compound 3.16 µM
[36] = second compound 3.16 µM, first compound 10 µM
[37] = second compound 10 µM, first compound 0.0316 µM
[38] = second compound 10 µM, first compound 0.1 µM
[39] = second compound 10 µM, first compound 0.316 µM
[40] = second compound 10 µM, first compound 1 µM
[41] = second compound 10 µM, first compound 3.16 µM
[42] = second compound 10 µM, first compound 10 µM
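Note: spheroids exposed to compounds for seven days before viability read.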
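Throughout, for viability, T/C: luminescence used as a proxy for viable cell amount; percent viability relative to DMSO vehicle control as 100%.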

`C=CC(=O)N1CCN(c2nc(=O)n(-c3c(C)ccnc3C(C)C)c3nc(-c4c(O)cccc4F)c(F)cc23)C(C)C1` (stereo unspecified) + Cc1nc(NC(=O)N2CCCC2C(N)=O)sc1-c1ccnc(C(C)(C)C(F)(F)F)c1 was tested. Which IC50 [1] did it give?
The IC50 was over 10 µM.

And the IC50 [2]?
Its IC50 is over 10 µM.

And the IC50 [3]?
The IC50 was over 10 µM.

And the IC50 [4]?
Its IC50 is over 10 µM.

What about the IC50 [5] of the same molecule?
Its IC50 is over 10 µM.

What about the IC50 [6] of the same molecule?
The IC50 was 0.0454 µM.

And the viability, T/C [7]?
Its viability, T/C is 91.4%.

And the viability, T/C [8]?
Its viability, T/C is 107%.

And the viability, T/C [9]?
Its viability, T/C is 111%.

What about the viability, T/C [10] of the same molecule?
Its viability, T/C is 116%.

What about the viability, T/C [11] of the same molecule?
The viability, T/C was 115%.

And the viability, T/C [12]?
Its viability, T/C is 114%.

What about the viability, T/C [13] of the same molecule?
Its viability, T/C is 87.5%.

What about the viability, T/C [14] of the same molecule?
The viability, T/C was 90.4%.

And the viability, T/C [15]?
Its viability, T/C is 90.5%.

And the viability, T/C [16]?
Its viability, T/C is 96.7%.

What about the viability, T/C [17] of the same molecule?
The viability, T/C was 122%.

What about the viability, T/C [18] of the same molecule?
Its viability, T/C is 93.5%.

And the viability, T/C [19]?
The viability, T/C was 79.8%.

What about the viability, T/C [20] of the same molecule?
The viability, T/C was 95.2%.

What about the viability, T/C [21] of the same molecule?
Its viability, T/C is 94.7%.

And the viability, T/C [22]?
The viability, T/C was 83.6%.

And the viability, T/C [23]?
The viability, T/C was 97.5%.

What about the viability, T/C [24] of the same molecule?
The viability, T/C was 89.9%.

And the viability, T/C [25]?
The viability, T/C was 88.6%.

And the viability, T/C [26]?
The viability, T/C was 85.8%.

And the viability, T/C [27]?
Its viability, T/C is 75.6%.

What about the viability, T/C [28] of the same molecule?
Its viability, T/C is 87.5%.

What about the viability, T/C [29] of the same molecule?
The viability, T/C was 77.6%.

And the viability, T/C [30]?
The viability, T/C was 80.1%.

And the viability, T/C [31]?
Its viability, T/C is 59.5%.

What about the viability, T/C [32] of the same molecule?
The viability, T/C was 71.7%.

And the viability, T/C [33]?
The viability, T/C was 74.7%.

And the viability, T/C [34]?
Its viability, T/C is 61.6%.

What about the viability, T/C [35] of the same molecule?
Its viability, T/C is 64.4%.

What about the viability, T/C [36] of the same molecule?
Its viability, T/C is 59.5%.

And the viability, T/C [37]?
Its viability, T/C is 50.5%.

What about the viability, T/C [38] of the same molecule?
Its viability, T/C is 50.7%.

And the viability, T/C [39]?
Its viability, T/C is 43.2%.

And the viability, T/C [40]?
The viability, T/C was 40.6%.

What about the viability, T/C [41] of the same molecule?
Its viability, T/C is 48.8%.

What about the viability, T/C [42] of the same molecule?
Its viability, T/C is 47.4%.

What does the source list for `Cn1nccc1Nc1nccc(-c2ccn(C(CO)c3ccc(Cl)c(F)c3)c(=O)c2)n1` (stereo unspecified)?
viability, T/C (compound 0.0316 µM): 98.7% [middle of 4 runs]; viability, T/C (compound 0.1 µM): 97% [middle of 4 runs]; viability, T/C (compound 0.316 µM): 112% [middle of 4 runs]; viability, T/C (compound 1 µM): 90.8% [middle of 4 runs]; viability, T/C (compound 3.16 µM): 76.5% [middle of 4 runs]; viability, T/C (compound 10 µM): 64.7% [middle of 4 runs]; IC50 (curve of compound): > 10 µM

For `CC1(C)CCC(Nc2ncc(C(F)(F)F)c(-c3c[nH]c4c(P(C)(C)=O)c(C#N)ccc34)n2)CN1` (stereo unspecified) + CC(Nc1ncnc2nc[nH]c12)c1cc2cccc(Cl)c2c(=O)n1-c1ccccc1, which IC50 [1] is on record?
The IC50 was 6.14 µM.

And the IC50 [2]?
Its IC50 is 5.51 µM.

What about the IC50 [3] of the same molecule?
The IC50 was 5.94 µM.

What about the IC50 [4] of the same molecule?
Its IC50 is 5.43 µM.

And the IC50 [5]?
The IC50 was 5.26 µM.

What about the IC50 [6] of the same molecule?
The IC50 was 4.66 µM.

What about the viability, T/C [7] of the same molecule?
Its viability, T/C is 95.8%.

And the viability, T/C [8]?
Its viability, T/C is 84.5%.

What about the viability, T/C [9] of the same molecule?
Its viability, T/C is 85.2%.

What about the viability, T/C [10] of the same molecule?
The viability, T/C was 77.9%.

What about the viability, T/C [11] of the same molecule?
Its viability, T/C is 84%.

And the viability, T/C [12]?
The viability, T/C was 25%.

What about the viability, T/C [13] of the same molecule?
Its viability, T/C is 88.9%.

What about the viability, T/C [14] of the same molecule?
Its viability, T/C is 87.3%.

And the viability, T/C [15]?
The viability, T/C was 77.9%.

And the viability, T/C [16]?
The viability, T/C was 75.4%.

And the viability, T/C [17]?
The viability, T/C was 78.1%.

What about the viability, T/C [18] of the same molecule?
The viability, T/C was 20.1%.

What about the viability, T/C [19] of the same molecule?
Its viability, T/C is 95.7%.

And the viability, T/C [20]?
The viability, T/C was 83.8%.

What about the viability, T/C [21] of the same molecule?
The viability, T/C was 85.8%.

And the viability, T/C [22]?
The viability, T/C was 77.9%.

What about the viability, T/C [23] of the same molecule?
Its viability, T/C is 87.8%.

And the viability, T/C [24]?
The viability, T/C was 19.9%.

And the viability, T/C [25]?
Its viability, T/C is 88.6%.

What about the viability, T/C [26] of the same molecule?
The viability, T/C was 86.1%.

What about the viability, T/C [27] of the same molecule?
The viability, T/C was 72.8%.

What about the viability, T/C [28] of the same molecule?
Its viability, T/C is 72.3%.

And the viability, T/C [29]?
The viability, T/C was 80.3%.

What about the viability, T/C [30] of the same molecule?
Its viability, T/C is 16%.

What about the viability, T/C [31] of the same molecule?
Its viability, T/C is 82.6%.

What about the viability, T/C [32] of the same molecule?
Its viability, T/C is 81.3%.

And the viability, T/C [33]?
The viability, T/C was 74.2%.

And the viability, T/C [34]?
Its viability, T/C is 74.4%.

What about the viability, T/C [35] of the same molecule?
The viability, T/C was 79.2%.

What about the viability, T/C [36] of the same molecule?
Its viability, T/C is 14.2%.

What about the viability, T/C [37] of the same molecule?
Its viability, T/C is 90.9%.

What about the viability, T/C [38] of the same molecule?
Its viability, T/C is 74.5%.

And the viability, T/C [39]?
The viability, T/C was 58.3%.

What about the viability, T/C [40] of the same molecule?
The viability, T/C was 70.3%.

And the viability, T/C [41]?
Its viability, T/C is 69.8%.

What about the viability, T/C [42] of the same molecule?
The viability, T/C was 10.9%.
